Like-named read-outs stand apart in the source and are kept apart here.
Legend:
[1] = tested on: rat; details: 2-year study; cited from earlier work
[2] = tested on: mouse; details: 2-year study; cited from earlier work
[3] = cited from earlier work
[4] = cited from earlier work; remark: listed apart in the source
[5] = tested on: patients; details: cited from earlier work; for incidence of depression: controlled trial titrated from 4.5 g, placebo 1.7%
[6] = in vivo
Description: (§1) The study included a sequential, three period design with a single-dose administration of 6 g FT218 on Day 1 (Period 1), once daily 1250 mg divalproex sodium ER administration from Day 2-11 (Period 2), and FT218 and divalproex sodium ER co-administration on Day 12 (Period 3). All administrations were performed in the morning, 2 hours after the completion of a morning meal.
(§2) To compare the effect of FT218 on DVP, the concentration versus time curves for a 1250 mg dose of DVP administered alone (Day 11) and co-administered with FT218 (Day 12) were plotted together.

[7] = in vivo; remark: listed apart in the source
Description: as §1, with “evening,” for “morning,”, “dinner.” for “a morning meal.”
as §2

[8] = tested on: male and female rats; details: cited from earlier work
[9] = tested on: pregnant rats; details: cited from earlier work
[10] = molecular target: CYP2C19 (Homo sapiens, UniProt P33261); details: up to 3 mM (378 mcg/mL); cited from earlier work
CYP2C19, sequence (P33261 whole entry): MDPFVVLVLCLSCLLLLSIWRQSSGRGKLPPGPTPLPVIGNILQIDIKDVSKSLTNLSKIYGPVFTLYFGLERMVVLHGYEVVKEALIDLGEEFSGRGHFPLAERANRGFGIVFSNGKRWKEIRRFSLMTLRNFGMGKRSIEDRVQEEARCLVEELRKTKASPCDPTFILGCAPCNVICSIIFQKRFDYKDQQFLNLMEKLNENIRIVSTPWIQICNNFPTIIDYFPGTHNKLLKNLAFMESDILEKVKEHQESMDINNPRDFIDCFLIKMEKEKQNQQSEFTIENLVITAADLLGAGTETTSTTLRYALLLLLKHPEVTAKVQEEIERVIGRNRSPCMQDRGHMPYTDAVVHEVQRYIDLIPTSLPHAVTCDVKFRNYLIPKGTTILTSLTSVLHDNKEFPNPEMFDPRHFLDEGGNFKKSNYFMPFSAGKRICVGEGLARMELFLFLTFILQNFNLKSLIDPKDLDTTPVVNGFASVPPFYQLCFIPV

[11] = molecular target: CYP2E1 (Homo sapiens, UniProt P05181); details: up to 3 mM (378 mcg/mL); cited from earlier work
CYP2E1, sequence (P05181 whole entry): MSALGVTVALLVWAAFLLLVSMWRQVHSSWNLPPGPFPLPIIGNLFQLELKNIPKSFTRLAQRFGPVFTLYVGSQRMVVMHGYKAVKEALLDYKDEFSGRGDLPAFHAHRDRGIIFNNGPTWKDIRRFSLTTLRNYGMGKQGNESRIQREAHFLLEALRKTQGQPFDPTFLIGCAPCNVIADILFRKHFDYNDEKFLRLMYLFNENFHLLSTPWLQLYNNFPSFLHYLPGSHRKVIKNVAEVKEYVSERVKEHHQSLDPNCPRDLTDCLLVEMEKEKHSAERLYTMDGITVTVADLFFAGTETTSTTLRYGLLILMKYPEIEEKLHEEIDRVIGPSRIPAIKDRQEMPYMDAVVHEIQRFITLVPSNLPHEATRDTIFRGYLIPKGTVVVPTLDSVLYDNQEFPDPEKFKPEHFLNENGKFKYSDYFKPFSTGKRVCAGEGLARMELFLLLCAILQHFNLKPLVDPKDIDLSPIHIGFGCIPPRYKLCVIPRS

[12] = tested on: rats; details: cited from earlier work
[13] = tested on: rats; details: cited from earlier work; remark: listed apart in the source
[14] = tested on: rat; details: in vivo; cited from earlier work
[15] = tested on: bacterial gene mutation; details: in vitro; cited from earlier work
[16] = tested on: rats; details: cited from earlier work; remark: listed apart in the source
[17] = tested on: pregnant rabbits; details: cited from earlier work
[18] = molecular target: CYP2D6 (Homo sapiens, UniProt P10635); details: up to 3 mM (378 mcg/mL); cited from earlier work
CYP2D6, sequence (P10635 whole entry): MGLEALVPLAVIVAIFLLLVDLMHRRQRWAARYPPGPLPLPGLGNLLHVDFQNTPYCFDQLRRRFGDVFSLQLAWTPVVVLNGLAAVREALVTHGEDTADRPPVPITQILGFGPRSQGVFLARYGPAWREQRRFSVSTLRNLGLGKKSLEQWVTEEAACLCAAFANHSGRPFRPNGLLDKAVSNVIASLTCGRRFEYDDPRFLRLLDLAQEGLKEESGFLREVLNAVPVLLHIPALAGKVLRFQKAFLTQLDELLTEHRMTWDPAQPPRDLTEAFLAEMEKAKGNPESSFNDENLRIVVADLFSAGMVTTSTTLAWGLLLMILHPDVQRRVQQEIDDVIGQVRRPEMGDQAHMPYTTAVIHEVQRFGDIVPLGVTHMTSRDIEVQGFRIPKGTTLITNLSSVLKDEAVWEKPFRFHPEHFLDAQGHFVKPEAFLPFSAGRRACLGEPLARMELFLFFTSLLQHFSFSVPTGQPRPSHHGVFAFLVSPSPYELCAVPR

[19] = tested on: CYP3A; details: up to 3 mM (378 mcg/mL); cited from earlier work
[20] = cited from earlier work; for apparent oral clearance: 25 mg/kg oral
[21] = tested on: mammalian cells; details: in vitro; cited from earlier work
[22] = molecular target: T1, CYP1A2 (Homo sapiens, UniProt P05177); details: up to 3 mM (378 mcg/mL); cited from earlier work
T1 sequence (P05177 1-516): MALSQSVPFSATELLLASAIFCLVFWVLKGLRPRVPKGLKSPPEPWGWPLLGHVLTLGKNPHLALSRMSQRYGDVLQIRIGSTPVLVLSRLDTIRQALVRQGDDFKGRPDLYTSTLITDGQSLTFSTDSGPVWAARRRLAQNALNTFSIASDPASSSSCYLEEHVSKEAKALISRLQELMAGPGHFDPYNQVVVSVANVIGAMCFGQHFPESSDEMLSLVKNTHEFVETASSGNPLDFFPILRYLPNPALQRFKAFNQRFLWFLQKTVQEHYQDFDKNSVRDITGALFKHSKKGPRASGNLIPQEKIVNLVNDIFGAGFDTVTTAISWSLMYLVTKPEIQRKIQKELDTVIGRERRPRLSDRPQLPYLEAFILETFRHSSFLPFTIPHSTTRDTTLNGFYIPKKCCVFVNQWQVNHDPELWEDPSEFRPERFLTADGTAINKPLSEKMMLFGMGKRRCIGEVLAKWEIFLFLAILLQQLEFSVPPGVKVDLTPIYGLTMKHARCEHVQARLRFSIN

[23] = molecular target: CYP2C9 (Homo sapiens, UniProt P11712); details: up to 3 mM (378 mcg/mL); cited from earlier work
CYP2C9, sequence (P11712 whole entry): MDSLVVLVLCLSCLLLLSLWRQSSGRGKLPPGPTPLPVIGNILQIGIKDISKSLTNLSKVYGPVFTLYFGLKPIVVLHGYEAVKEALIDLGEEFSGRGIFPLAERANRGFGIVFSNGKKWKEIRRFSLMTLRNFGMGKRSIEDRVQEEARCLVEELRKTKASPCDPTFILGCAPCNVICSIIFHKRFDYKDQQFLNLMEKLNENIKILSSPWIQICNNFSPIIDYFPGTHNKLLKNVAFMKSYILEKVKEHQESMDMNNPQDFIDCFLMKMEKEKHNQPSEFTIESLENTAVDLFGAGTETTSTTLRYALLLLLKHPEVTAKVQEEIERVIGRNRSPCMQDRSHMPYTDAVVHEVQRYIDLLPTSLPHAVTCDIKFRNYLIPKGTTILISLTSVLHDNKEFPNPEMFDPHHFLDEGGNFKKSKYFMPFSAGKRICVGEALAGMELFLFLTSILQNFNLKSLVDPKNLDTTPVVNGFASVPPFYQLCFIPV

[24] = cited from earlier work; remark: listed apart in the source
[25] = tested on: plasma proteins; details: GHB concentrations 3 mcg/mL to 300 mcg/mL; cited from earlier work
[26] = 6 g per day as two 3 g doses, ibuprofen 800 mg/dose four times per day
[27] = 9 g per night, 50 patients with obstructive sleep apnea
[28] = elderly (65 years or older), another population
[29] = of 781 patients with narcolepsy
[30] = younger adults, another population

**Q.** With `O=C1CCCO1` [gamma-butyrolactone] as the compound, how does the carcinogenic activity [1] read?
**A.** no clear evidence of carcinogenic activity

**Q.** And the carcinogenic activity [2]?
**A.** no clear evidence of carcinogenic activity

**Q.** Which results are given for `O=C([O-])CCCO.[Na+]` [immediate-release sodium oxybate, sodium 4-hydroxybutyrate]?
**A.** systemic exposure to GHB on co-administration with diclofenac ([3]; 6 g per day as two 3 g doses four hours apart, diclofenac 50 mg/dose twice per day): no significant changes; effect of co-administration on pharmacokinetics of diclofenac ([3]; 6 g per day as two 3 g doses, diclofenac 50 mg/dose twice per day): did not appear to affect; effect of co-administration on pharmacokinetics of ibuprofen [3, 26]: did not affect; systemic exposure to GHB (plasma Cmax and AUC) on co-administration with ibuprofen [3, 26]: comparable systemic exposure; pharmacokinetic interactions with protriptyline hydrochloride, zolpidem tartrate, and modafinil ([3]; healthy adults): no pharmacokinetic interactions; pharmacokinetic or pharmacodynamic interactions with duloxetine HCl ([3]; healthy adults): no pharmacokinetic or clinically significant pharmacodynamic interactions; pharmacokinetic interactions with the alcohol dehydrogenase inhibitor fomepizole ([3]; in vivo): no pharmacokinetic interactions; pharmacokinetic characteristics of GHB in younger (48 to 64 years) vs older (65 to 75 years) adults ([4]; n=20, another studied population): consistent; incidence of depression ([5]; 4.5 g per night): 1.5%; incidence of depression ([5]; 6 g per night): 3.2%; patients with clinically significant oxygen desaturation (≤55%) ([5]; 9 g per night, 50 patients with obstructive sleep apnea (three patients)): 6%; number of central apneas [5, 27]: significant increase; severity of sleep-disordered breathing [5, 27]: did not increase the severity of sleep-disordered breathing; patients experiencing confusion ([5]; 9 g per night, controlled fixed-dose trial): 17%; incidence of depression ([5]; 9 g per night): 3.6%; clinically significant worsening of respiratory function ([5]; 40 patients with baseline apnea/hypopnea index 16 to 67 events per hour, 4.5 g to 9 g per night): None of the 40 patients; profound CNS depression ([5]; 128 patients with narcolepsy): two subjects had profound CNS depression; CNS depression at recommended doses ([5]; adult patients, clinical trials): obtundation and clinically significant respiratory depression occurred; sleepwalking with potential injury or significant injury ([5]; clinical trial in patients with narcolepsy): Five instances; events of depression ([5]; controlled trial, fixed doses 3 g, 6 g or 9 g per night, at the 3 g per night dose): a single event of depression; dose-related changes in oxygen saturation ([5]; doses up to 9 g per night, 21 patients with narcolepsy): no dose-related changes in oxygen saturation; discontinuations of treatment due to adverse reactions [5, 28]: 21%; frequency of headaches [5, 28]: 39%; patients discontinuing because of depression ([5]; four of 781 patients): < 1%; patients discontinuing due to sleepwalking ([5]; human, in vivo): < 1%; patients who discontinued because of confusion ([5]; human, in vivo): Less than 1%; patients reporting adverse reactions of depression [5, 29]: 7%; patients who experienced confusion [5, 29]: 3%; patients reporting sleepwalking ([5]; of 781 patients with narcolepsy, controlled and long-term open-label studies): 6%; patients in whom anxiety occurred ([5]; of 874 patients, another population): 5.8%; suicides and attempted suicides ([5]; patients with narcolepsy (n=781)): two suicides and two attempted suicides; significant worsening of apnea/hypopnea index ([5]; patients with preexisting moderate-to-severe sleep apnea): One of four patients; events of confusion ([5]; trial titrated from 4.5 g per night, at the 9 g per night dose): a single event of confusion; discontinuations of treatment due to adverse reactions [5, 30]: 19%; frequency of headaches [5, 30]: 19%

**Q.** For `CCCC(CCC)C(=O)O` [divalproex sodium ER, divalproex sodium], which “90% CIs of ratio of Cmax and AUC0-24 of valproic acid vs bioequivalence range (80.00%-125.00%)” value [6] is on record?
**A.** contained within the standard bioequivalence range

**Q.** What about the “decrease of valproic acid Cmax with FT218” value ([7]; human) of the same compound?
**A.** approximately 5%

**Q.** And the “valproic acid AUC0-24 T/R ratio [90% CI], Day 12 (with FT218) vs Day 11 (without)” value ([7]; human)?
**A.** 97.28 [94.59-100.04]

**Q.** What about the “valproic acid Cmax T/R ratio [90% CI], Day 12 (with FT218) vs Day 11 (without)” value ([7]; human) of the same compound?
**A.** 94.82 [91.03-98.76]

**Q.** What about the “90% CIs of ratio of Cmax and AUC0-24 of valproic acid vs bioequivalence range (80.00%-125.00%)” value [7] of the same compound?
**A.** contained within the standard bioequivalence range

**Q.** And the “tmax for valproic acid, with vs without FT218” value [7]?
**A.** comparable

**Q.** Which “highest dose tested relative to MRHD on a mg/m^2 basis” value ([8]; 1,000 mg/kg/day) does the source give for `O=C([O-])CCCO.[Na+]` [sodium oxybate, sodium 4-hydroxybutyrate] here?
**A.** approximately equal to the MRHD

**Q.** And the effects on fertility ([8]; oral 150, 350, or 1,000 mg/kg/day prior to and throughout mating, females through early gestation)?
**A.** no adverse effects on fertility

**Q.** What about the “highest dose tested relative to MRHD of 9 g per night (mg/m^2 basis)” value ([9]; 1,000 mg/kg/day) of the same compound?
**A.** approximately 1 times

**Q.** And the developmental toxicity ([9]; oral 150, 350, or 1,000 mg/kg/day throughout organogenesis)?
**A.** no clear evidence of developmental toxicity

**Q.** And the “inhibition of CYP2C19 activity” value [10]?
**A.** does not significantly inhibit

**Q.** And the “inhibition of CYP2E1 activity” value [11]?
**A.** does not significantly inhibit

**Q.** What about the “growth and maturation findings” value ([12]; at the highest dose tested (900 mg/kg/day)) of the same compound?
**A.** Reduced body weight gain in males and females and delayed sexual maturation in males

**Q.** What about the mortality ([12]; oral 0, 100, 300, or 900 mg/kg/day, postnatal days 21 through 90) of the same compound?
**A.** mortality was observed at the two highest doses tested

**Q.** And the “pre- and postnatal findings” value ([13]; oral 150, 350, or 1,000 mg/kg/day, at the highest dose tested)?
**A.** increased stillbirths and decreased offspring postnatal viability and body weight gain

**Q.** What about the “no-effect dose for pre- and postnatal developmental toxicity relative to MRHD (mg/m^2 basis)” value ([13]; rat, in vivo) of the same compound?
**A.** less than the MRHD

**Q.** And the micronucleus [14]?
**A.** negative

**Q.** And the bacterial gene mutation [15]?
**A.** negative

**Q.** And the “plasma exposure (AUC) at the highest dose tested relative to humans at MRHD of 9 g per night” value ([16]; 1,000 mg/kg/day)?
**A.** 2 times

**Q.** And the tumors ([16]; oral doses up to 1,000 mg/kg/day for 83 (males) or 104 (females) weeks)?
**A.** no increase in tumors

**Q.** What about the “gender differences in pharmacokinetics of GHB” value ([4]; 18 female and 18 male healthy adults, 4.5 g oral dose) of the same compound?
**A.** no gender differences were detected

**Q.** And the “highest dose tested relative to MRHD of 9 g per night (mg/m^2 basis)” value ([17]; 1,200 mg/kg/day)?
**A.** ~3 times

**Q.** What about the developmental toxicity ([17]; oral 300, 600, or 1,200 mg/kg/day throughout organogenesis) of the same compound?
**A.** no clear evidence of developmental toxicity

**Q.** And the “inhibition of CYP2D6 activity” value [18]?
**A.** does not significantly inhibit

**Q.** And the “inhibition of CYP3A activity” value [19]?
**A.** does not significantly inhibit

**Q.** And the apparent oral clearance ([20]; Child's Class A cirrhotic patients)?
**A.** 4.5 mL/min/kg

**Q.** What about the apparent oral clearance ([20]; Child's Class C cirrhotic patients) of the same compound?
**A.** 4.1 mL/min/kg

**Q.** And the “mean t1/2” value ([20]; Class C patients)?
**A.** 59 min

**Q.** What about the apparent oral clearance ([20]; healthy adults) of the same compound?
**A.** 9.1 mL/min/kg

**Q.** And the “AUC values in cirrhotic patients vs normal hepatic function” value ([20]; single oral dose of 25 mg/kg)?
**A.** doubled

**Q.** And the chromosomal aberration [21]?
**A.** negative

**Q.** And the “inhibition of CYP1A2 activity” value [22]?
**A.** does not significantly inhibit

**Q.** And the “inhibition of CYP2C9 activity” value [23]?
**A.** does not significantly inhibit

**Q.** Which results are given for `O=C(O)CCCO` [GHB, gamma-hydroxybutyrate]?
**A.** excretion in human milk ([24]; after oral administration of sodium oxybate): excreted in human milk; apparent volume of distribution ([24]; in vivo): 0.19 to 0.384 L/kg; elimination half-life ([24]; in vivo): 30 to 60 min; fecal excretion ([24]; in vivo): negligible; placental transfer ([24]; intravenous administration to mothers): rapid; unchanged drug in human urine ([24]; within 6 to 8 hours after dosing): less than 5%; change in pharmacokinetics of GHB on alteration of gastric pH with omeprazole ([3]; in vivo): no significant change; bound to plasma proteins [25]: less than 1%
